{"source": "paper PMC6024209", "about": "“Inhibition of P. aeruginosa c-di-GMP phosphodiesterase RocR and swarming motility by a benzoisothiazolinone derivative” (Chemical Science, 2016)", "molecular_target": "RocR (Pseudomonas aeruginosa, UniProt Q9HX69)", "sequence (Q9HX69 whole entry)": "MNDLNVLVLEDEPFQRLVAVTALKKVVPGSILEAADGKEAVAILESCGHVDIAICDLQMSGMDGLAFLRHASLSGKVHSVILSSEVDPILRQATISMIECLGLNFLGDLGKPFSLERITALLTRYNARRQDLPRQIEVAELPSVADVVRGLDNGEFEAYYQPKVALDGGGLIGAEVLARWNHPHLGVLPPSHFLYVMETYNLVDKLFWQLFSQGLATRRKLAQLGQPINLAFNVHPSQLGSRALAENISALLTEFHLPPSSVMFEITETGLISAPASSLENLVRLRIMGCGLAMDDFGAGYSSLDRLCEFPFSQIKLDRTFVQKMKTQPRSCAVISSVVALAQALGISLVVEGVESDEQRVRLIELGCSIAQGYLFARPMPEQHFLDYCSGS", "experiment": "RocR intrinsic fluorescence change (Kd […] by two fits); also non-competitive enzyme inhibition, Ki […]", "format": "binding"}
{"smiles": "O=C(CCCn1sc2ccccc2c1=O)Nc1ccc(O)cc1", "note": "[compound 1]", "values": [{"measurement": "Kd", "value": "14 ± 2", "unit": "µM"}]}
